# Measurements as given in patent US20050142254A1 (priority 2003, published 2005).
# Where two headings read alike, the source gives them in different places.
# What was measured:
# [1] = type: biochemical
# Procedure: […]. Here, 25 μL of 400 μM hemin suspension was added to it and incubated at 30° C. for 30 minutes. The final concentration of each component was: AFB1, 16 μM; hydrogen peroxide, 500 μM; Tween 80, 1%; hemin, 100 μM.
# After the reaction, HPLC and TLC analyses were performed to confirm the degradation of AFB1 and the formation of reaction product. The equal amount of ethyl acetate was added to the reaction mixture, and extraction was done by mixing with a Voltex mixer for 1 minute. The resulting mixture was centrifuged at 10,000×g for 2 minutes, and the ethyl acetate layer (upper layer) was recovered in a new 0.5-mL microtube.
# The extract was used for HPLC analysis in succession. The separation column used was a silica column, Shim-pack CLC-SIL (0.46×15 cm). […].
# AFB1 degradation was performed at 30° C. for 30 minutes in the same manner as in Example 1 except that the amount of hemin added was varied.
# After the reaction, the amount of remaining AFB1 and that of AFQ1 formed were measured quantitatively by HPLC.
# AFB1 degradation was performed at 30° C. for 30 minutes in the same manner as in Example 1 except that the amount of hydrogen peroxide added was varied.
# After the reaction, amount of the remaining AFB1 and that of AFQ1 formed were measured quantitatively by HPLC.
# (§1) AFB1 degradation was performed at 50° C. for 6 hours in the presence or absence of hemin with the same reaction mixture as used in Example 1. After the reaction, the reaction mixture was subjected to the mutagenicity test with Umlac. Ten percent of DMSO aqueous solution was prepared as a control without AFB1, and then subjected to the same mutagenicity test.
# umu gene = type: cell-based
# Procedure: Mutagenecity test was performed with the AFB1 degradation reaction mixture after hemin treatment. In the test, a conventional mutagenicity test kit “Umlac” (Nippon Antibody Laboratory) was used. Umlac is a kit for short-period mutagenicity test, umu-test, which was developed by Shinagawa (Research Institute for Microbial Diseases, Osaka University), et al. The test is to measure the expression level of umu gene using β-galactosidase activity as an index. The umu gene is considered to be a kind of SOS gene whose expression is induced by DNA-damaging chemicals, and known to be directly concerned with mutation. It has been confirmed that test result of “Umlac” well correlates with those of the Ames test and the carcinogenicity test that are currently used for typical mutagenicity test.
# as §1
# Higher umu gene expression represents higher mutagenicity. The control value represents no mutagenicity.
# [2] = type: physicochemical
# From the text: (§2) We also confirmed that AFQ1 degradation is accelerated by heat, and it occurs non-enzymatically. Horseradish peroxidase (HRP) has a strong AFB1-degrading activity as well as hemin.
# [3] = type: biochemical; remark: listed apart in the source
# From the text: as §2
# [4] = type: biochemical; conditions: pH 7.5
# [5] = Bisphenol A (BPA) degradation with hemin, HPLC; type: biochemical; conditions: 100 μM hemin, 400 μM BPA, 500 μM hydrogen peroxide, 30° C., reaction for 6 hours
# Procedure: […]. hydrogen peroxide, 500 μM; Tween 80, 1%; hemin, 100 μM.
# BPA degradation was confirmed by HPLC. After the reaction, a portion (100 μL) of the reaction mixture was taken, added to the equal amount of ethyl acetate, and extracted for 1 minute by mixing with a Voltex mixer. The mixture was centrifuged at 10,000×g for 2 minutes, and the ethyl acetate layer (upper layer) was recovered in a new 0.5-mL microtube.
# HPLC analysis was conducted using the extract. The column used was STR ODS-II (0.46×15 cm). For the mobile phase for BPA quantification, 50% acetonitrile aqueous solution containing 0.1% trifluoroacetic acid was used at the flow rate of 0.7 mL/min. A UV-visible spectrophotometric detector (Shimadzu SPD-6AV) was used at the absorbance wave length of 277 nm for BPA detection.
# For the mobile phase for the detection of BPA degradation product, 30% acetonitrile aqueous solution containing 0.1% trifluoroacetic acid was used at the flow rate of 0.5 mL/min. The absorbance at wave length of 280 nm was monitored for this detection.
# [6] = Aniline degradation with hemin, HPLC; type: biochemical; conditions: 10 μM hemin, 50 μM aniline, 500 μM hydrogen peroxide, 30° C., reaction for 3 hours
# Procedure: […]. Under this condition, the reaction mixture was uniform, thus no detergent was added to it.
# After the reaction, equal amount of ethyl acetate was added to the reaction mixture, and extraction was done by mixing with a Voltex mixer for 1 minute, and then centrifuged at 10,000×g for 2 minutes. The resulting aniline-containing ethyl acetate layer (upper layer) was recovered in a new 0.5-mL microtube.
# The ethyl acetate extract was directly subjected to HPLC analysis to determine the amount of remaining aniline. The column used was STRODS-II (0.46×15 cm). For mobile phase, 10% acetonitrile aqueous solution was used at the flow rate of 0.5 mL/min. With a UV-visible spectrophotometric detector (Shimadzu SPD-6AV), the absorbance at wave length of 280 nm was monitored for aniline detection.
compound,measurement,setting,value
"COc1cc2c(c3oc(=O)c4c(c13)CCC4=O)C1C=COC1O2 (stereo not shown) [AFB1, aflatoxin B1]",remaining AFB1,[1],12 µM
same,umu Gene Expression (OD620),umu gene,1.185
"COc1cc2c(c3oc(=O)c4c(c13)C(O)CC4=O)C1C=COC1O2 (stereo not shown) [AFQ1, aflatoxin Q1]","AFQ1 degradation, effect of temperature",[2],degraded much rapidly at 50 °C than 30 °C
HRP: Horseradish peroxidase,"AFQ1-degradation rate, presence vs absence of HRP","[2]; 1 μM AFQ1 in phosphate buffer, 30° C. or 50° C.",no significant difference
same,AFB1-degrading activity,[3],strong
hemin,aflatoxin M1 disappeared,[4],36%
same,amount of BPA relative to that initially added,[5],18%
same,aniline relative to that initially added,[6],45%
same,AFB1 degraded,"[1]; 200 μM hemin, 16 μM AFB1, 30° C. for 30 minutes",approximately 25%
same,change in AFB1-degradation efficiency depending on hydrogen peroxide concentration,"[1]; hemin, hydrogen peroxide 1.0 mM to 10 mM, 30° C. for 30 minutes",no significant increase
same,remaining AFB1,"[1]; reaction mixture with hemin, 16 μM AFB1, 50° C. for 6 hours",≤ 0.16 µM
same,AFB1 added degraded,"[1]; reaction mixture with hemin, 50° C. for 6 hours",more than 99%
same,umu Gene Expression (OD620),"umu gene; reaction mixture with AFB1 and hemin, treatment at 50° C. for 6 hours",0.523
